Measurements as given in patent US20200278355A1, “CONJUGATED PROTEINS AND USES THEREOF” (THE SCRIPPS RESEARCH INSTITUTE, priority 2017, published 2020).

Assays:
GSTO1 = biological target: T1, GSTO1 (Homo sapiens, UniProt P78417); test: ABPP-SILAC BPK-29yne competition in H460 cells: GSTO1; assay type: cell-based; details: 20 μM
T1 construct: Isotopically labeled H460 cell lines were generated as described above; endogenous in cells; host or cells: H460 (SILAC-labelled)
Procedure: (§1) Isotopically labeled H460 cell lines were generated as described above. Light and heavy cells were treated with compounds (20 μM) or DMSO, respectively, for 3 h, followed by labeling with the BPK-29yne (5 μM) for 30 min. Cells were washed once ice-cold PBS and lysed in 1% Triton 100-X dissolved in PBS with protease inhibitors (Sigma) by sonication. Lysate was adjusted to 1.5 mg ml^−1 in 500 μL. Samples were conjugated by CuAAC to Biotin-PEG4-azide (5 μL of 10 mM stocks in DMSO, final concentration=100 μM). CuAAC “click” mix contained TCEP, TBTA ligand and CuSO4 as detailed for isoTOP-ABPP sample preparation. Samples were further processed as detailed in: isoTOP-ABPP streptavidin enrichment and isoTOP-ABPP trypsin TEV digestion with the following exception: after overnight incubation at 37° C. with trypsin, tryptic digests were separated from the beads with Micro Bio-Spin columns (Bio-Rad) by centrifugation (1,000×g, 1 min). Beads were rinsed once with water (200 μL) and combined with tryptic digests. […]
(§2) The MS2 spectra data were extracted and searched using RAW Convertor and ProLuCID algorithm as described in isoTOP-ABPP peptide and protein quantification. […] Ratios of heavy/light (DMSO/test compound) peaks were calculated using in-house CIMAGE software. […] The mean R values and standard deviation for multiple biological experiments were calculated from the average ratios from each replicate. […]

PTGES2 = biological target: T2, PTGES2 (Homo sapiens, UniProt Q9H7Z7); test: ABPP-SILAC BPK-29yne competition in H460 cells: PTGES2; assay type: cell-based; details: 20 μM
T2 construct: Isotopically labeled H460 cell lines were generated as described above; endogenous in cells; host or cells: H460 (SILAC-labelled)
T2 sequence (Q9H7Z7 whole entry): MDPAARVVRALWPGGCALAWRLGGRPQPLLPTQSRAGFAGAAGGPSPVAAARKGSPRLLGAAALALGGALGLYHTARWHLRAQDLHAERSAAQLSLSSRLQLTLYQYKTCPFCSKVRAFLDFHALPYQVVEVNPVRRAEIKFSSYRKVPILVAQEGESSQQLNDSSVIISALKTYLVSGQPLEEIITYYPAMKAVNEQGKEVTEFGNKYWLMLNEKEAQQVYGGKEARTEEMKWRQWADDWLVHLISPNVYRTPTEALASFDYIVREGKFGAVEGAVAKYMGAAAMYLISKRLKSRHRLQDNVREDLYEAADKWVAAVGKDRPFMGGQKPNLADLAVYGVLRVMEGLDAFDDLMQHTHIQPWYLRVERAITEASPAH
Procedure: as §1, §2

T1 sequence (P78417 whole entry): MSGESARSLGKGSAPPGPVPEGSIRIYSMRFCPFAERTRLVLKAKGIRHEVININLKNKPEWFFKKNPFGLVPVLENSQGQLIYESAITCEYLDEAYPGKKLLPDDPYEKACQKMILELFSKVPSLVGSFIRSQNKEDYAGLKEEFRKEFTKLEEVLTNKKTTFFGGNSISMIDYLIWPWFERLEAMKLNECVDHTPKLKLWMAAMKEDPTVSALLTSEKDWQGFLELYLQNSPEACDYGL

For `O=C(c1ccc(N2CCOCC2)cc1)N1CCCC(N(Cc2ccccc2)C(=O)CCl)CC1` (centres unmarked) [BPK-29, N-benzyl-2-chloro-N-(1-(4-morpholinobenzoyl)azepan-4-yl)acetamide], the “BPK-29-competed BPK-29yne analysis” value (GSTO1) was “Yes (Competed defined as showing R value ≥ 2.5 at 20 μM of test compound)” and the “BPK-29-competed BPK-29yne analysis” value (PTGES2) was “Yes (Competed defined as showing R value ≥ 2.5 at 20 μM of test compound)”.
